≈ marks a conversion by molar mass, not a printed value. Read-outs that look alike come from different tables or passages of the source.
Columns and labels:
[1] = Stability test of the salts (high temperature / high humidity, 14 days); format: physicochemical
Protocol: (§1) 3. Hygroscopicity Measurement Method: The test sample was placed for 24 hours at 25°C and 92.5% RH, and then the weight gain by moisture absorption was measured. 4. Stability Test Method: The test sample was placed in a suitable clean container for 14 days under a high temperature (60°C), or a high humidity (40°C, a relative humidity of 75%) condition, and it was sampled on day 0 and day 14 to detect the purity and impurities of the test sample.

[2] = Hygroscopicity measurement; format: physicochemical; details: 25°C, 92.5% RH, 24 hours
Protocol: as §1

[3] = Solubility test in water by HPLC (external standard); format: physicochemical; details: 37°C, shaken 30 minutes
Protocol: 1. X-ray Powder Diffraction (XRPD) Test Method: • Instrument: Bruker D8 advance X-ray polycrystalline diffractometer; Target: Cu-Kα (40 kV, 40 mA); Sample-to-detector distance: 30 cm; Scanning type: two-axis linkage; Scanning step width: 0.02°; Scanning range: 3°~40°; Scanning step: 0.1 s. • In general, diffraction angles (2θ values) in XRPD may produce errors within a range of ± 0.2°, and thus numerical values relating to diffraction angles in the present invention should be understood to also encompass numerical values within a range of about ± 0.2°. Therefore, the present invention not only covers the crystal form that completely matches the characteristic signal peak in the specific XRPD pattern, but also covers the crystal form that has an error of about ± 0.2° with the characteristic signal peak in the specific XRPD pattern. 2. Solubility Test Method: About 20 mg of the test sample was taken and placed in a 1.5 ml sample tube, added with 1 ml of water, then placed in a shaker, shaken at 37°C for 30 minutes, the sample tube was taken and centrifuged in a centrifuge for 2 minutes, and the supernatant was taken for HPLC analysis.

5-HT3 receptor = target: T1, 5-HT3 receptor (Homo sapiens, UniProt P46098); details: cited from earlier work
T1 sequence (P46098 24-478): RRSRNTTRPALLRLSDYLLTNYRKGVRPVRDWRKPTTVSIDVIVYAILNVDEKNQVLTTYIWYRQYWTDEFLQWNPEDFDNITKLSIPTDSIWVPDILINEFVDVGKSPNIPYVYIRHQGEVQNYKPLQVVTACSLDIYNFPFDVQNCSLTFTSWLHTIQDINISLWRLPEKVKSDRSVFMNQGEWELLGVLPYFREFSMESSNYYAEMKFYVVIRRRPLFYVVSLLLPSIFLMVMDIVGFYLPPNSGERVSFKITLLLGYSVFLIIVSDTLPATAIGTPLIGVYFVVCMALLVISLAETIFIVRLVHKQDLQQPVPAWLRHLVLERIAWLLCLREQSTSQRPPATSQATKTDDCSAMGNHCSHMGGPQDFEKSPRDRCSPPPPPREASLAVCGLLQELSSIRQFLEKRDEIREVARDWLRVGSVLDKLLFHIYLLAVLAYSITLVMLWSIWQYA

[4] = cited from earlier work
serotonin reuptake = serotonin reuptake (Homo sapiens, UniProt P31645); details: read-out: serotonin reuptake inhibition concentration (IC50); cited from earlier work
Chain of serotonin reuptake (P31645 whole entry): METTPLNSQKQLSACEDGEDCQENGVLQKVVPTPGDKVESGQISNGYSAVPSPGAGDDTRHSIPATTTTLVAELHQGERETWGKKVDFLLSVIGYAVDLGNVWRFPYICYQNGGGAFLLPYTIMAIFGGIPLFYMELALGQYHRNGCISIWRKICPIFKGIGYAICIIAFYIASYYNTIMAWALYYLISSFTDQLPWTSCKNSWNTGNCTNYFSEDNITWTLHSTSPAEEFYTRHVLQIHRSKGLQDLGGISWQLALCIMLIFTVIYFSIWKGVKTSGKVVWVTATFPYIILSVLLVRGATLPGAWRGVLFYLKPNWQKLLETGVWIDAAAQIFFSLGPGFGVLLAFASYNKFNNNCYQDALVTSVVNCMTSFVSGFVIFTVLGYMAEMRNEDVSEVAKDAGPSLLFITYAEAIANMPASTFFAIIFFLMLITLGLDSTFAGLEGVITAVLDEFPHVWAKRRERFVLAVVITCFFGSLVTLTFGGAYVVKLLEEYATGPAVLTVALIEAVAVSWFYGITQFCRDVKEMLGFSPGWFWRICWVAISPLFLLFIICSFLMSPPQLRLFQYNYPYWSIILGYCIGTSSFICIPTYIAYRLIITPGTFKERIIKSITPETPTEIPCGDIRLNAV

[5] = 60°C/14 days (aluminum foil pouch)

SMILES	Total Impurity (%) ([1]; 40°C/75% RH/14 days)	Total Impurity (%) ([1]; 60°C/14 days)	Total Impurity (%) [1, 5]	Total Impurity (%) ([1]; Day 0)	weight gain by moisture absorption [2]	Solubility [3]	also measured
CN1CC2CN(c3ccc4ccccc4c3)CC2C1 (single isomer, unassigned) [Example 7, 2-methyl-5-(naphthalen-2-yl)octahydropyrrolo[3,4-c]pyrrole]	0.17%	0.18%	0.20%	0.14%	0.64%	15 mg/mL (≈ 59.4 mM)	–
CN1CC2CN(c3ccc4ccccc4c3)CC2C1 (single isomer, unassigned) [Example 1, 2-methyl-5-(naphthalen-2-yl)octahydropyrrolo[3,4-c]pyrrole]	0.15%	0.19%	0.19%	0.13%	1.6%	>100 mg/mL	–
CN1CC2CN(c3ccc4ccccc4c3)CC2C1 (stereo not drawn) [Example 3, 2-methyl-5-(naphthalen-2-yl)octahydropyrrolo[3,4-c]pyrrole]	–	–	–	–	To be liquid	–	–
CN1CC2CN(c3ccc4ccccc4c3)CC2C1 (stereo not drawn) [compound of formula (I), 2-methyl-5-(naphthalen-2-yl)octahydropyrrolo[3,4-c]pyrrole]	–	–	–	–	–	–	affinity for 5-HT3 receptor (5-HT3 receptor): high affinity; Total Impurity (%) ([1]; 40°C/75% RH/14 days, listed as Basic compoun d): 0.41%; Total Impurity (%) ([1]; 60°C/14 days (aluminum foil pouch), listed as Basic compoun d): 0.31%; Total Impurity (%) ([1]; 60°C/14 days, listed as Basic compoun d): 0.23%; Total Impurity (%) ([1]; Day 0, listed as Basic compoun d): 0.15%; Solubility [4]: low; Solubility ([3]; listed as basic compound of formula (I)): Almost Insoluble; IC50 (serotonin reuptake): < 10 nM
CN1CC2CN(c3ccc4ccccc4c3)CC2C1 (single isomer, unassigned) [Example 2, 2-methyl-5-(naphthalen-2-yl)octahydropyrrolo[3,4-c]pyrrole]	0.31%	0.37%	0.36%	0.35%	0.74%	11 mg/mL (≈ 43.6 mM)	–
CN1CC2CN(c3ccc4ccccc4c3)CC2C1 (single isomer, unassigned) [Example 5, 2-methyl-5-(naphthalen-2-yl)octahydropyrrolo[3,4-c]pyrrole]	–	–	–	–	1.21%	4 mg/mL (≈ 15.9 mM)	–
CN1CC2CN(c3ccc4ccccc4c3)CC2C1 (single isomer, unassigned) [Example 6, 2-methyl-5-(naphthalen-2-yl)octahydropyrrolo[3,4-c]pyrrole]	–	–	–	–	1.26%	–	–
CN1CC2CN(c3ccc4ccccc4c3)CC2C1 (single isomer, unassigned) [Example 4, 2-methyl-5-(naphthalen-2-yl)octahydropyrrolo[3,4-c]pyrrole]	0.44%	0.22%	0.24%	0.21%	6.74%	3.5 mg/mL (≈ 13.9 mM)	–

From patent publication EP4653441A1, “SALT OF ANTIDEPRESSANT COMPOUND, AND PREPARATION METHOD THEREFOR, PHARMACEUTICAL COMPOSITION CONTAINING SAME AND USE THEREOF” (Vigonvita Life Sciences Co., Ltd., priority 2023, dated 2024)
